Measurements reported in patent US20250361230A1, “LATS Inhibitors and Uses Thereof” (The USA, as Represented by the Secretary, Dept. of Heath …, priority 2022, published 2025).

Biological target: T1, AKT Kinase-NanoLuc fusion in HEK-293 cells (Homo sapiens, UniProt P31749)
T1 construct: host or cells: HEK-293
Experiment: NanoBRET target engagement assay in transfected HEK-293 cells, AKT
Assay type: cell-based
Conditions: cellular; read-out: AKT (Cellular) IC50
In short: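 HEK-293 cells transiently transfected with kinase-NanoLuc fusion plasmid for 22-24 h, then incubated with compound and NanoBRET tracer for 1 hour at 37° C. After substrate plus extracellular NanoLuc inhibitor addition, 460 and 600 nm emissions read; no-tracer-corrected BRET ratio used to derive IC50 values.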

T1 sequence (P31749 whole entry, the tested form may be a part): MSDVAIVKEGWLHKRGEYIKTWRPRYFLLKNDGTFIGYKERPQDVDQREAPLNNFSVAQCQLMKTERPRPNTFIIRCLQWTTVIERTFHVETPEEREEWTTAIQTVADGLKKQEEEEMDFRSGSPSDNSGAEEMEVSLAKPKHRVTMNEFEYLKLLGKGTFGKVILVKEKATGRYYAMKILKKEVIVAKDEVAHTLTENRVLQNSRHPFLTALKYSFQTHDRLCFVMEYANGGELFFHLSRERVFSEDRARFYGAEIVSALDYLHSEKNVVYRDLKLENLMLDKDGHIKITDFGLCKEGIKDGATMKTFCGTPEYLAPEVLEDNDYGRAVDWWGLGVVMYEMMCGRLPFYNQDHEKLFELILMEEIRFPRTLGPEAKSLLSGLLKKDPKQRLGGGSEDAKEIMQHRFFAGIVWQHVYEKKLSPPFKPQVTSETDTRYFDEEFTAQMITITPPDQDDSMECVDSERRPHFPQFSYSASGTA

IC50 [µM] | Compound
56.8 | Cc1cc(-c2ccnc3[nH]cc(C#N)c23)ccc1[C@@]1(O)[C@H](C)CN(C(=O)CN)C[C@@H]1C [Compound 2005, 4-(4-((3S,4s,5R)-1-glycyl-4-hydroxy-3,5-dimethylpiperidin-4-yl)-3-methylphenyl)-1H-pyrrolo[2,3-b]pyridine-3-carbonitrile]
> 50 | Cc1cc(-c2ccnc3[nH]cc(C#N)c23)cc(F)c1[C@@]1(O)[C@H](C)CN(C(=O)[C@H](N)CO)C[C@@H]1C [Compound 2007, 4-(4-((3S,4S,5R)-1-(D-seryl)-4-hydroxy-3,5-dimethylpiperidin-4-yl)-3-fluoro-5-methylphenyl)-1H-pyrrolo[2,3-b]pyridine-3-carbonitrile]
> 50 | Cc1cc(-c2ccnc3[nH]cc(C#N)c23)cc(F)c1[C@@]1(O)[C@H](C)CN(C(=O)[C@](C)(N)CO)C[C@@H]1C [Compound 2008, 4-(4-((3S,4s,5R)-1-(2-amino-3-hydroxy-2-methylpropanoyl)-4-hydroxy-3,5-dimethylpiperidin-4-yl)-3-fluoro-5-methylphenyl)-1H-pyrrolo[2,3-b]pyridine-3-carbonitrile]
> 50 | Cc1cc(-c2ccnc3[nH]cc(C#N)c23)cc(F)c1[C@@]1(O)[C@H](C)CN(C(=O)[C@H](C)N)C[C@@H]1C [Compound 2011, 4-(4-((3S,4R,5R)-1-(L-alanyl)-4-hydroxy-3,5-dimethylpiperidin-4-yl)-3-fluoro-5-methylphenyl)-1H-pyrrolo[2,3-b]pyridine-3-carbonitrile]
> 50 | CNCC(=O)N1C[C@@H](C)[C@](O)(c2c(C)cc(-c3ccnc4[nH]cc(C#N)c34)cc2F)[C@@H](C)C1 [Compound 2012, 4-(3-fluoro-4-((3S,4s,5R)-4-hydroxy-3,5-dimethyl-1-(methylglycyl)piperidin-4-yl)-5-methylphenyl)-1H-pyrrolo[2,3-b]pyridine-3-carbonitrile]
> 50 | Cc1cc(-c2ccnc3[nH]cc(C#N)c23)cc(F)c1[C@@]1(O)[C@H](C)CN(C(=O)CNCC(F)(F)F)C[C@@H]1C [Compound 2014, 4-(3-fluoro-4-((3S,4s,5R)-4-hydroxy-3,5-dimethyl-1-((2,2,2-trifluoroethyl)glycyl)piperidin-4-yl)-5-methylphenyl)-1H-pyrrolo[2,3-b]pyridine-3-carbonitrile]
> 50 | Cc1cc(-c2ccnc3[nH]cc(C#N)c23)cc(F)c1[C@@]1(O)[C@H](C)CN(C(=O)[C@@H](C)N)C[C@@H]1C [Compound 2015, 4-(4-((3S,4S,5R)-1-(D-alanyl)-4-hydroxy-3,5-dimethylpiperidin-4-yl)-3-fluoro-5-methylphenyl)-1H-pyrrolo[2,3-b]pyridine-3-carbonitrile]
> 50 | Cc1cc(-c2ccnc3[nH]cc(C#N)c23)cc(F)c1[C@@]1(O)[C@H](C)CN(C(=O)C(N)C(F)(F)F)C[C@@H]1C (stereo partly drawn) [Compound 2017, 4-(4-((3S,4s,5R)-1-(2-amino-3,3,3-trifluoropropanoyl)-4-hydroxy-3,5-dimethylpiperidin-4-yl)-3-fluoro-5-methylphenyl)-1H-pyrrolo[2,3-b]pyridine-3-carbonitrile]
> 50 | Cc1cc(-c2ccnc3[nH]cc(C#N)c23)cc(F)c1[C@@]1(O)[C@H](C)CN(C(=O)[C@H](CO)N(C)C)C[C@@H]1C [Compound 2023, 4-(4-((3S,4R,5R)-1-(dimethyl-L-seryl)-4-hydroxy-3,5-dimethylpiperidin-4-yl)-3-fluoro-5-methylphenyl)-1H-pyrrolo[2,3-b]pyridine-3-carbonitrile]
> 50 | Cc1cc(-c2ccnc3[nH]cc(C#N)c23)cc(F)c1[C@@]1(O)[C@H](C)CNC[C@@H]1C [Compound 2024, 4-(3-fluoro-4-((3S,4s,5R)-4-hydroxy-3,5-dimethylpiperidin-4-yl)-5-methylphenyl)-1H-pyrrolo[2,3-b]pyridine-3-carbonitrile]
